US6566081B1, “Methods of identifying a compound which modulates the non-transcriptional non-map-kinase induced effects of steroid hormones” (The Brigham and Women's Hospital, Inc., priority 1999, dated 2003)
“Also recorded” adds a separate entry of the source. Each block holds one compound with its values, some of them ahead of it.

Key:
PI3-kinase = PI3-kinase assay on p85 immunoprecipitates of endothelial cell lysates; format: cell-based, human; details: E2 10 nM 20 min; ICI 10 μM, wortmannin 30 nM
Procedure: PI3kinase activity in endothelial cell lysates was assayed using the borate thin layer chromatography method, as described.^34 Following a 6 h incubation in serum- and estrogen-deficient medium 199, endothelial cells were treated according to the indicated conditions, washed, and harvested in ice-cold lysis buffer (137 mM NaCl, 20 mM Tris-HCl, pH 7.4, 1 mM CaCl2, 1 mM Mg Cl2, 0.1 mM Na3VO4, 1% NP-40). After pelleting the cell debris, the supernatant was incubated for 1 hour at 4° C. with 5 μL of a rabbit antiserum directed against the p85 regulatory subunit of the PI3-kinase (Upstate Biotechnology, Lake Placid, N.Y.), and immunoprecipitated with the addition of 50 μL of a 1:1 slurry of protein A-agarose for 1 hour at 4° C. Following centrifugation, the immunoprecipitates were washed three times with lysis buffer, three times with 0.1 M Tris-HCl, pH 7.4, 5 mM LiCl, 0.1 mM Na3VO4, followed by two washes with 10 mM Tris-HCl, pH 7.4, 150 mM NaCl, 5 mM EDTA, 0.1 mM Na3VO4.
The immunoprecipitates were then mixed with 50 μL Tris-HCl, pH 7.4, 150 mM NaCl, 5 mM EDTA, 20 μg of phosphatidylinositol (Sigma, Saint Louis, Mo.), 10 μL 100 mM MgCl2 and 5 μL of a 0.88 mM ATP, 20 mM MgCl2 solution, containing 30 μCi of [γ-^32P]ATP (3000 Ci/mmol; NEN Life Science Products, Boston, Mass.). […] The phospholipids were extracted with 160 μL of chloroform/methanol (1:1, v/v). 50 μL of the organic phase, containing the labeled PI3-kinase products were separated by borate thin layer chromatography on glass-backed Silica Gel 60 plates (EM Separations, Gibbstown, N.J.) pretreated with a solution containing 25 mM trans-1,2-diaminocyclohexane-N,N,N′N′-tetraacetic acid (CDTA, Sigma, Saint Louis, Mo.), 66% (v/v) ethanol and 0.06 N NaOH, dried for 1 hour and then baked at 100° C. for 15 minutes. The chromatography was developed with a solution containing 37.5% (v/v) methanol, 30% (v/v) chloroform, 22.5% (v/v) pyridine (Sigma, Saint Louis, Mo.), 1.33% (v/v) formic acid, […] boric acid and 8.5 mM butylated hydroxytoluene (Sigma, Saint Louis, Mo.), briefly dried and exposed to autoradiography.

eNOS [1] = assay: eNOS activity assay (conversion of [3H]-arginine to [3H]-citrulline) in treated human endothelial cells; format: cell-based; details: E2 10 nM, wortmannin 30 nM, genistein 50 μM, PD98059 5 μM; for effect on E2-stimulated eNOS activity, later phase (≥15 min) or 30 min: ICI 10 μM, actinomycin D 2 h pretreatment
Procedure: Fetal bovine serum was deprived of estrogen by charcoal-stripping. Once grown to confluence the cells were replated on 1.5% gelatin-coated flasks at 20000 cells/cm^2. […] Cell number was assessed by direct cell counting of adherent cells, after trypsin detachment, in a Neubauer hemocytometer (VWR Scientifics). The percentage of cells excluding Trypan Blue after staining with the compound was taken as a measure of cell viability.
Endothelial cells were grown to confluence on 55 cm^2 culture dishes, treated according to the indicated conditions, and harvested in ice-cold PBS containing 1 mM EDTA. The cell lysates were pelleted in a microfuge (2 minutes, 13000 rpm, 4° C.) and subsequently homogenized in a buffer containing 25 mM Tris-HCl, pH 7.4, 1 mM EDTA, 1 mM EGTA. eNOS activity was determined by measuring the conversion of [^3H]-arginine to [^3H]-citrulline. Rat cerebellum extracts, containing elevated amounts of neuronal NOS, were used as positive controls, while endothelial cell extracts incubated in the presence of the competitive eNOS inhibitor L-NAME (1 mM) served as negative controls.
Human and bovine aortic endothelial cells were harvested enzymatically with Type IA collagenase (1 mg/mL).

ER-α / PI3-kinase p85α = target: T1, ER-α / PI3-kinase p85α (Homo sapiens, UniProt P03372); assay: ER-α immunoprecipitation: co-precipitated p85α and associated PI3-kinase activity; format: cell-based; details: ICI 10 μM, wortmannin, tamoxifen 1 μM, PD 98059 5 μM, actinomycin D 5 μM
T1 construct: endogenous in cells; host or cells: human endothelial cells (HSVEC), anti-ERα immunoprecipitate
T1 sequence (P03372 1-595): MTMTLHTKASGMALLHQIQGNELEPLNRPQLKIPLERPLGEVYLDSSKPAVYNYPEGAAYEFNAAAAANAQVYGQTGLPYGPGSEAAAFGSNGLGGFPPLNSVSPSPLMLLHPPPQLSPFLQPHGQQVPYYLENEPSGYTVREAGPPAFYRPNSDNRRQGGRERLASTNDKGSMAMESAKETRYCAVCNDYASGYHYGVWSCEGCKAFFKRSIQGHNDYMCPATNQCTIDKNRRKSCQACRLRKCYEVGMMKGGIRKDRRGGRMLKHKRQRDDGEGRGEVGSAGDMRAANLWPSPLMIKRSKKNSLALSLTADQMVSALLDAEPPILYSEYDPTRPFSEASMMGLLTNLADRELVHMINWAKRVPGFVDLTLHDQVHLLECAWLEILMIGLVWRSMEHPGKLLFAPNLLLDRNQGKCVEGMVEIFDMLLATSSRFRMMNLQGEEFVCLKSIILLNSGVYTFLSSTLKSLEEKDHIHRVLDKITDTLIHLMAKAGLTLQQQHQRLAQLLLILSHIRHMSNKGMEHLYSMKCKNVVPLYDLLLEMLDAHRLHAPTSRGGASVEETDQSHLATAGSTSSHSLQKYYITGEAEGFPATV

ERK 1 and 2 = assay: Immunoblotting of ERK 1/2 phosphorylation; format: cell-based, human; details: E2 10 nM, PD 98059 5 μM
Procedure: After the different treatments, serum-starved endothelial cells were rinsed once with ice-cold PBS before addition of the lysis buffer (100 mM Tris-HCl, pH 6.8, 4% SDS, 20% glycerol, 1 mM sodium orthovanadate, 1 mM NaF, and 1 mM phenylmethylsulfonylfluoride) to the dishes on an ice tray. The cell lysates were scraped, boiled, and centrifuged for 2 min at 13000 rpm. Total cell lysates (40 μg of protein) and low range molecular weight markers (BIO-RAD, Hercules, Calif.) were separated by SDS-polyacrylamide gel electrophoresis (12% running, 4% stacking), electrophoretically transferred to polyvinylidene fluoride membranes (Immobilon P, 0.45 μm pore size) and incubated overnight at 4° C. with blocking solution (5% skim milk in TBS—0.1% Tween 20). Affinity-purified rabbit antibodies (0.4 μg of IgG/ml) vs. Akt, (Ser 473) phospho-Akt or (Thr 308) phospho-Akt (New England BioLabs, Beverly, Mass.), Erk1/2, (Tyr 204) phospho-Erk-1/-2 (Calbiochem, San Diego, Calif.) were incubated with the membranes overnight at 4° C. in TBS—0.1% Tween 20 containing 5% BSA. The blots were washed three times with TBS—0.1% Tween 20 and then treated with donkey anti-rabbit antibody (1:4000 dilution) coupled to horseradish peroxidase. Immunodetection was accomplished using the enhanced chemoluminescence kit (ECL Kit, Amersham Corp.).

ERα-p85α interaction = target: T2, ERα-p85α interaction (Homo sapiens, UniProt P03372); assay: GST fusion protein-affinity purification (GST-p85α and recombinant ERα, cell-free); format: binding; details: recombinant ERα, Hsp90 0.5 μg
T2 construct: purchased Panvera (ERα)
Procedure: Human recombinant GST-p85α fusion protein or GST (Sigma, St. Louis, Mo.) bound to glutathione-agarose beads (1 μg protein/20 μL beads) were suspended in 400 μL of E. Coli protein extract solution (10 mg/mL) and incubated with 1 μg human recombinant ERα (Panvera, Madison, Wis.) for 1 h at 4° C. The samples were pelleted, and the beads were washed 5 times with a buffer containing 50 mM potassium phosphate, pH 7.5, 150 mM KCl, 1 mM MgCl2, 10% (v/v) glycerol, 1% (v/v) Triton X-100 plus protease inhibitors. The beads were re-suspended in 50 μL of 2×Laemmli's buffer and boiled for 5 min. Proteins were separated on SDS-polyacrylamide gel electrophoresis.

eNOS [2] = target: T3, eNOS (Mus musculus, UniProt P70313); assay: Cremaster eNOS activity in mice; format: in vivo; details: L-NAME 0.1 mM, E2-treated mice
T3 construct: from tissue; host or cells: cremaster muscle of male C57BL/6 mice
Procedure: (§1) Mice were anesthetized and the cremaster muscle was studied under intravital microscopy^28. Ischemia was induced by applying pressure to supplying arteries just sufficient to stop blood flow for 30 min. In some experiments, wortmannin (100 nM) or L-NAME (0.1 mM) was applied to the cremaster muscle during the ischemic period. The pressure was released for reperfusion, and the same vessels were recorded in each animal before and after I/R. The rolling velocities of 25 leukocytes were measured in each venule; sorted and averaged for each rank to construct cumulative histograms. The velocities of 3,750 leukocytes were measured in 150 venules before and after I/R. The number of firmly adherent leukocytes was measured before and after I/R in the same 200 μm long segments of venules. The following number of venules were studies for leukocyte adhesion: Untreated, 15 venules; E2-treated, 20 venules; E2-treated with wortmannin, 25 venules; E2-treated with L-NAME, 15 venules. Cremaster eNOS activity was measured in 3 untreated, 4 E2-treated, 5 E2-treated with wortmannin, and 4 E2-treated with L-NAME mice.

[3] = system: mouse cremaster muscle venules; assay: Model of vascular injury: ischemia and reperfusion in the mouse cremaster muscle (leukocyte rolling and adhesion); format: in vivo; details: wortmannin 100 nM or L-NAME 0.1 mM during ischemia
Procedure: as §1, with “venules.” for “venules. The following number of venules were studies for leukocyte adhesion: Untreated, 15 venules; E2-treated, 20 venules; E2-treated with wortmannin, 25 venules; E2-treated with L-NAME, 15 venules. Cremaster eNOS activity was measured in 3 untreated, 4 E2-treated, 5 E2-treated with wortmannin, and 4 E2-treated with L-NAME mice.”

T2 sequence (P27986 whole entry partner, one chain of several, the tested form may be a part): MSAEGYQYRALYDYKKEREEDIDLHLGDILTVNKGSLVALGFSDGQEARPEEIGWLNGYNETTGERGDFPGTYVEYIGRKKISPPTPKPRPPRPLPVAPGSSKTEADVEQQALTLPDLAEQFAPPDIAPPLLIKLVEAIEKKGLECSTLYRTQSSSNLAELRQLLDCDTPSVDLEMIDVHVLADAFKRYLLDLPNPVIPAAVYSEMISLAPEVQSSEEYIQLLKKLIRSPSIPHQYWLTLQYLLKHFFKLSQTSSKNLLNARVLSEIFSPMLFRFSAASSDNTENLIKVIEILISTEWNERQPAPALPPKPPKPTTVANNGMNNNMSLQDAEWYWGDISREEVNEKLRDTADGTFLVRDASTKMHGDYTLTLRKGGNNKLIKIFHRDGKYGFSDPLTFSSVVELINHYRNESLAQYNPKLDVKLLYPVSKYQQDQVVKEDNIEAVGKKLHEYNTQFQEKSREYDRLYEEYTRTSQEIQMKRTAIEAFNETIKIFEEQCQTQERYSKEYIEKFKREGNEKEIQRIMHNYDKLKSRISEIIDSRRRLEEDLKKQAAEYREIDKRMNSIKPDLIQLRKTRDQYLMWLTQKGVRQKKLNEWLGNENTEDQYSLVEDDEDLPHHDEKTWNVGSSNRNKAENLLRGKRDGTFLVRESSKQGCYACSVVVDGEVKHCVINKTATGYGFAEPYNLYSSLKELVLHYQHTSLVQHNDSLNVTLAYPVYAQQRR
T3 sequence (P70313 2-1202): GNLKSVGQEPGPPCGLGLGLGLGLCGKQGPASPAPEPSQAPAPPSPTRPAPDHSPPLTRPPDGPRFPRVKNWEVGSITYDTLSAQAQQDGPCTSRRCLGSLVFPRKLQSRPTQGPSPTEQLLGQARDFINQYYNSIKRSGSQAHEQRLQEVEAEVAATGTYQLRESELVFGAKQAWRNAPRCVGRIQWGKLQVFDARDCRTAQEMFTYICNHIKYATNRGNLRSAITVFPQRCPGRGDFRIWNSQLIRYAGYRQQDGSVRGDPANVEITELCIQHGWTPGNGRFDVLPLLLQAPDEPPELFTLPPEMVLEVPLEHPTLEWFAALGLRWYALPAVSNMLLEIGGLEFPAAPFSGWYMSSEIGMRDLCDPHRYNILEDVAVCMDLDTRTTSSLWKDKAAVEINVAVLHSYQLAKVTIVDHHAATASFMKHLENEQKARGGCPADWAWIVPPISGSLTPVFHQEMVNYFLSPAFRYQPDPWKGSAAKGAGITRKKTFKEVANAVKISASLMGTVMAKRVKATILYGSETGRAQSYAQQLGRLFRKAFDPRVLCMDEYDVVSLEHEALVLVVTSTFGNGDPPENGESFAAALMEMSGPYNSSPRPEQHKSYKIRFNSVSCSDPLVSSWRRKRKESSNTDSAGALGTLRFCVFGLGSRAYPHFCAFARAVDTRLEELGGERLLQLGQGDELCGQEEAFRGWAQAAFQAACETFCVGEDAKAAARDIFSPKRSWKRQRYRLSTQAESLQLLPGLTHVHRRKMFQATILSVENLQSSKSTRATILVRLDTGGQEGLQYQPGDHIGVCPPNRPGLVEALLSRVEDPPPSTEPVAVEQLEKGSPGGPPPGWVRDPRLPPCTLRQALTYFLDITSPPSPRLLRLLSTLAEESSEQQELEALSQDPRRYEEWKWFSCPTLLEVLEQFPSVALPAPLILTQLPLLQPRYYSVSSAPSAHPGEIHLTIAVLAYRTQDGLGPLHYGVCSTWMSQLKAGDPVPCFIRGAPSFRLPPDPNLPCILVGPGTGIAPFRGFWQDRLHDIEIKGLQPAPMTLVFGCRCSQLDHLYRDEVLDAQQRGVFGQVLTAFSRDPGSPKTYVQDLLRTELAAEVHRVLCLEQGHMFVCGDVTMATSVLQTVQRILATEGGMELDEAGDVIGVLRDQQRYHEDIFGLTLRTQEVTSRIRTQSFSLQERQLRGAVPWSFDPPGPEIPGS

effect on E2-stimulated ER-α-associated PI3-kinase activity (ER-α / PI3-kinase p85α): not
Compound: COc1cccc(-c2cc(=O)c3ccccc3o2)c1N [PD98059]
effect on E2-induced PI3-kinase activation (PI3-kinase): only minimally affected | effect on E2-stimulated eNOS activity, later phase (≥15 min) or 30 min (eNOS [1]): only minimally affected; also recorded: not the later phase; also recorded: little or no inhibitory effect | effect on E2-stimulated eNOS activity, later phase (≥15 min) or 30 min (eNOS [1]; listed as PD 98059): do not block | effect on E2-stimulated eNOS activity, initial phase (first 5-10 min) (eNOS [1]): able to block; also recorded: significantly blocked | effect on E2-stimulated eNOS activity, initial phase (first 5-10 min) (eNOS [1]; listed as PD 98059): blunt | effect on E2-stimulated ERK-1 and -2 phosphorylation (ERK 1 and 2): inhibited | effect on E2-stimulated ERK-1 and -2 phosphorylation (ERK 1 and 2; listed as PD 98059): abolished

Compound: Heat shock protein 90: heat shock protein that binds and facilitates the function of ER and eNOS
effect on interaction of ERα and p85α (ERα-p85α interaction): inhibited | effect on interaction of ERα and p85α (ERα-p85α interaction; listed as Hsp90): inhibits

Compound: COC(=O)[C@@H](N)CCCNC(=N)N[N+](=O)[O-] [L-NAME, L-nitroarginine methylester]
effect of applied inhibitor on cremaster eNOS activity (eNOS [2]): decreased eNOS activity below that of untreated mice | leukocyte rolling velocity and accumulation, untreated vs E2-treated mice following I/R, with inhibitor applied to the cremaster muscle [3]: not different
